Assay results taken from patent US11987566B2, “Nerve damage preventing and nerve protecting compounds, preparation method thereof, pharmaceutical composition thereof, and their use” (GENHEALTH PHARMA CO., LTD., priority 2022, dated 2024).

Key:
[1] = system: transient focal Middle Cerebral Artery Occlusion/Reperfusion model (MCAO/R model); assay: Evaluation of the effect of preventing nerve damage: total infarct volume (TTC staining) in MCAO/R model; assay type: in vivo, male Sprague Dawley rat; settings: SD rat, 50 mg/kg intraperitoneal once 10 minutes before MCAO/R; 1 hour ischemia, 24 hours blood reperfusion; vehicle group 40.48
Procedure: Besides the foresaid experimental groups, only pure solvent used was treated as vehicle group, and a sham group, which was not administrated with any compound or solvent or with nylon monofilament to cause obstruction and ischemia, was also included. In this test example, transient focal Middle Cerebral Artery Occlusion/Reperfusion model (MCAO/R model) was adopted to simulate ischemic stroke for evaluating the subsequent nerve damage. Specifically, male Sprague Dawley rat (SD rat) was adopted and anaesthetized with 2% isoflurane, and then the right common carotid artery, external carotid artery and internal carotid artery were distinguished among them from the neck. Next, a nylon monofilament with length of 22 millimeters (mm), size number of 4/0 and capped with polysiloxane was inserted into the external carotid artery and along with the […] to the circle of Willis to induce obstruction and ischemia in the middle cerebral artery. After causing obstruction and ischemia for 1 hour, the nylon monofilament was removed to allow the blood recirculated to the brain, in other words, to undergo blood reperfusion. After blood reperfusion for 24 hours, the rat was sacrificed and the brain thereof was placed into a cooled 0.95% saline. […] Afterward, the sliced brain tissues were stained with a 4% […] solution, and then MacroPATH Digital Imaging System was used to record the images and the obtained images were analyzed by ImageJ 1.52a to count the infarct volume percent, which could represent the degree of nerve damage. The foresaid infarct volume percent was obtained by adding the values acquired by multiplying the proportion of infarct area of each sliced brain tissue with their thickness, and the proportion of infarct area was calculated by the equation: (B−A)/B×100%; wherein, “A” represented the undamaged area in the damaged cerebral hemisphere on the right side, and “B” represented the total area of the undamaged cerebral hemisphere on the left side. […]

[2] = system: transient focal Middle Cerebral Artery Occlusion/Reperfusion model (MCAO/R model); assay: Neurobehavioral evaluation (Bederson classification) after MCAO/R; settings: Bederson Grade 0-4, SD rat, 50 mg/kg intraperitoneal, vehicle group 2.80

| SMILES | Total infarct volume percent (%) [1] | Grade (neurobehavioral evaluation), time point of 0.5-hour after blood reperfusion [2] | Grade (neurobehavioral evaluation), time point of 1.5-hour after blood reperfusion [2] | Grade (neurobehavioral evaluation), time point of 24-hour after blood reperfusion ([2]; 24 hour after blood reperfusion) |
| --- | --- | --- | --- | --- |
| COc1c(C)c(CC=C(C)C)c(OC)c2c1OCO2 [Example 1] | 28.82% | 2.60 | 2.80 | 2.60 |
| COc1cc(COC(C)=O)c(OC)c2c1OCO2 [Example 3] | 17.13% | 2.80 | 2.60 |  |
| COc1cc(CC=C(C)C)c(OC)c2c1OCO2 [Example 4] | 16.4% | 2.60 | 2.60 |  |
